pIC50: −log10 of the molar value.
Target: KRasG12C (M1-K169, biotinylated on the N-terminus) (Homo sapiens (Human), UniProt P01116, G12C)
Test: Covalent competition assay: scintillation proximity assay (SPA) quantifying covalent modification of KRASG12C
Assay type: binding
Conditions: competition with radiolabeled covalent probe (Compound B/Compound A), 2 hours incubation, 10 nM KRasG12C
Description: Cells were harvested by centrifugation and frozen at −80° C. until further processing. […] The cells were lysed by 4 passages through an Avestin Emulsiflex at about 20000 psi and insoluble debris removed by centrifugation and filtered through a 0.45 µm Durapore membrane (Millipore). […] Eluted protein fractions were analyzed by Novex NuPage 4-12% PAGE. […] The protein in the flow through was subjected to a final polishing step on a HiLoad 16/60 Superdex 200 prep grade size-exclusion column pre-equilibrated with SEC-buffer (20 mM HEPES pH 7.4, 150 mM NaCl, 5 mM MgCl2, 1 µM GDP). Positive fractions were determined by PAGE (Novex NuPage 4-12% BisTris) analysis.
A scintillation proximity assay (SPA) was used to determine the potency of the compounds.
This assay measures the ability of the test compound to compete with the radiolabeled covalent probe for binding to and covalently modify KRASG12C.
(see above for synthesis of Compound A and Compound B). A serial dilution of the compounds to be tested is mixed with a fixed concentration of the radiolabeled covalent probe before incubation with KRASG12C:GDP as described below. KRASG12C can either be bound by the radiolabeled covalent probe (Compound B), resulting in light being emitted from the beads, or bound by covalent test compound preventing signal generation.
A 1/20 isotopic dilution of labeled (Compound B) and non-labeled covalent (Compound A) probe was prepared and added to all wells on the plate. The reaction was started by addition of KRasG12C (M1-K169, biotinylated on the N-terminus) to the compounds and incubated for 2 hours with continuous agitation allowing for full modification of KRasG12C with probe or test compounds. Final concentrations in an assay volume of 40 μL were 10 nM KRasG12C, 25 nM radio-ligand and 475 nM unlabelled ligand. The assay buffer contained 20 mM Tris-HCl pH 7.5 (Invitrogen), 150 mM NaCl (Sigma Aldrich), 0.1 mM MgCl2 (Sigma Aldrich), and 0.01% Tween-20 (Sigma Aldrich). Following addition of 50 μL of a 400 μg/mL suspension of streptavidin-coated YSi beads (Perkin Elmer), plates were incubated for a further 30 min with continuous agitation before reading the plates on a scintillation counter (Topcount NXT 384 (Packard).
Evaluation was carried out using assay data analysis software (such as the standard Novartis in-house Helios software application, Novartis Institutes for BioMedical Research, unpublished) using the methods described in Formenko et al., Robust Regression for high-throughput screening, Computer Methods and Programs in Biomedicine, 2006, 82, 31-37. Following normalization of activity values for the wells to % inhibition (% inhibition=[(high control−sample)/(high control−low control)]×100), IC50 fitting was carried out from the duplicate determinations present on each plate according to Formenko et al., 2006.
Evaluation can also be carried out using commercially available software which is designed to derive IC50 values using 4-parameter fits (e.g. GraphPad Prism, XL fit).

| Structure (SMILES) | pIC50 |
| --- | --- |
| C=CC(=O)N1CC2(CC(n3nc(N4CCC(O)CC4(C)C)c(-c4c(Cl)c(C)cc5[nH]ncc45)c3C)C2)C1 (single isomer, unassigned) [Example 30b, 1-(6-(4-(5-chloro-6-methyl-1H-indazol-4-yl)-3-(4-hydroxy-2,2-dimethylpiperidin-1-yl)-5-methyl-1H-pyrazol-1-yl)-2-azaspiro[3.3]heptan-2-yl)prop-2-en-1-one] | 5.57 |
| C=CC(=O)N1CC2(CC(n3nc(N4CCC(N5CCOCC5)CC4(C)C)c(-c4c(Cl)c(C)cc5[nH]ncc45)c3C)C2)C1 (single isomer, unassigned) [Example 34a, 1-(6-(4-(5-chloro-6-methyl-1H-indazol-4-yl)-3-(2,2-dimethyl-4-morpholinopiperidin-1-yl)-5-methyl-1H-pyrazol-1-yl)-2-azaspiro[3.3]heptan-2-yl)prop-2-en-1-one] | 5.42 |
| C=CC(=O)N1CC2(CC(n3nc(N4CCC(N5CCOCC5)CC4(C)C)c(-c4c(Cl)c(C)cc5[nH]ncc45)c3C)C2)C1 (single isomer, unassigned) [Example 34b, 1-(6-(4-(5-chloro-6-methyl-1H-indazol-4-yl)-3-(2,2-dimethyl-4-morpholinopiperidin-1-yl)-5-methyl-1H-pyrazol-1-yl)-2-azaspiro[3.3]heptan-2-yl)prop-2-en-1-one] | 7.89 |
| C=CC(=O)N1CC2(CC(n3nc(N4CCC(N5CCOCC5)CC4(C)C)c(-c4c(Cl)c(C)cc5[nH]ncc45)c3C)C2)C1 (single isomer, unassigned) [Example 35a, 1-(6-(4-(5-chloro-6-methyl-1H-indazol-4-yl)-3-(2,2-dimethyl-4-morpholinopiperidin-1-yl)-5-methyl-1H-pyrazol-1-yl)-2-azaspiro[3.3]heptan-2-yl)prop-2-en-1-one] | 6.60 |
| C=CC(=O)N1CC2(CC(n3nc(N4CCC(N5CCOCC5)CC4(C)C)c(-c4c(Cl)c(C)cc5[nH]ncc45)c3C)C2)C1 (single isomer, unassigned) [Example 35b, 1-(6-(4-(5-chloro-6-methyl-1H-indazol-4-yl)-3-(2,2-dimethyl-4-morpholinopiperidin-1-yl)-5-methyl-1H-pyrazol-1-yl)-2-azaspiro[3.3]heptan-2-yl)prop-2-en-1-one] | 5.82 |
| C=CC(=O)N1CC2(CC(n3nc(N4CCN(C(C)=O)CC4)c(-c4c(Cl)ccc5[nH]ncc45)c3C)C2)C1 (single isomer, unassigned) [Example 36a, 1-(6-(3-(4-acetylpiperazin-1-yl)-4-(5-chloro-1H-indazol-4-yl)-5-methyl-1H-pyrazol-1-yl)-2-azaspiro[3.3]heptan-2-yl)prop-2-en-1-one] | 4.61 |
| C=CC(=O)N1CC2(CC(n3nc(N4CCN(C(C)=O)CC4)c(-c4c(Cl)ccc5[nH]ncc45)c3C)C2)C1 (single isomer, unassigned) [Example 36b, 1-(6-(3-(4-acetylpiperazin-1-yl)-4-(5-chloro-1H-indazol-4-yl)-5-methyl-1H-pyrazol-1-yl)-2-azaspiro[3.3]heptan-2-yl)prop-2-en-1-one] | 5.62 |
| C=CC(=O)N1CC2(CC(n3nc(N4CC(c5cccnc5)C4)c(-c4c(Cl)c(C)cc5[nH]ncc45)c3C)C2)C1 (single isomer, unassigned) [Example 37a, 1-(6-(4-(5-chloro-6-methyl-1H-indazol-4-yl)-5-methyl-3-(3-(pyridin-3-yl)azetidin-1-yl)-1H-pyrazol-1-yl)-2-azaspiro[3.3]heptan-2-yl)prop-2-en-1-one] | < 4.30 |
| C=CC(=O)N1CC2(CC(n3nc(N4CC(c5cccnc5)C4)c(-c4c(Cl)c(C)cc5[nH]ncc45)c3C)C2)C1 (single isomer, unassigned) [Example 37b, 1-(6-(4-(5-chloro-6-methyl-1H-indazol-4-yl)-5-methyl-3-(3-(pyridin-3-yl)azetidin-1-yl)-1H-pyrazol-1-yl)-2-azaspiro[3.3]heptan-2-yl)prop-2-en-1-one] | 5.68 |

Other lines, results leading:

| pIC50 | Structure (SMILES) |
| --- | --- |
| < 5.30 | C=CC(=O)N1CC2(CC(n3nc(N4CCC5C(CC(=O)N5C)C4)c(-c4c(Cl)c(C)cc5[nH]ncc45)c3C)C2)C1 (single isomer, unassigned) [Example 38a, 5-(1-(2-acryloyl-2-azaspiro[3.3]heptan-6-yl)-4-(5-chloro-6-methyl-1H-indazol-4-yl)-5-methyl-1H-pyrazol-3-yl)-1-methyloctahydro-2H-pyrrolo[3,2-c]pyridin-2-one] |
| 7.05 | C=CC(=O)N1CC2(CC(n3nc(N4CCC5C(CC(=O)N5C)C4)c(-c4c(Cl)c(C)cc5[nH]ncc45)c3C)C2)C1 (single isomer, unassigned) [Example 38b, 5-(1-(2-acryloyl-2-azaspiro[3.3]heptan-6-yl)-4-(5-chloro-6-methyl-1H-indazol-4-yl)-5-methyl-1H-pyrazol-3-yl)-1-methyloctahydro-2H-pyrrolo[3,2-c]pyridin-2-one] |
| 4.38 | C=CC(=O)N1CC2(CC(n3nc(N4CCC5C(CC(=O)N5C)C4)c(-c4c(Cl)c(C)cc5[nH]ncc45)c3C)C2)C1 (single isomer, unassigned) [Example 39a, 5-(1-(2-acryloyl-2-azaspiro[3.3]heptan-6-yl)-4-(5-chloro-6-methyl-1H-indazol-4-yl)-5-methyl-1H-pyrazol-3-yl)-1-methyloctahydro-2H-pyrrolo[3,2-c]pyridin-2-one] |
| 7.12 | C=CC(=O)N1CC2(CC(n3nc(N4CCC5C(CC(=O)N5C)C4)c(-c4c(Cl)c(C)cc5[nH]ncc45)c3C)C2)C1 (single isomer, unassigned) [Example 39b, 5-(1-(2-acryloyl-2-azaspiro[3.3]heptan-6-yl)-4-(5-chloro-6-methyl-1H-indazol-4-yl)-5-methyl-1H-pyrazol-3-yl)-1-methyloctahydro-2H-pyrrolo[3,2-c]pyridin-2-one] |
| < 4.30 | C=CC(=O)N1CC2(CC(n3nc(N4CCc5nn(C)c(=O)cc5C4)c(-c4c(Cl)c(C)cc5[nH]ncc45)c3C)C2)C1 (single isomer, unassigned) [Example 40a, 6-(1-(2-acryloyl-2-azaspiro[3.3]heptan-6-yl)-4-(5-chloro-6-methyl-1H-indazol-4-yl)-5-methyl-1H-pyrazol-3-yl)-2-methyl-5,6,7,8-tetrahydropyrido[4,3-c]pyridazin-3(2H)-one] |
| 6.20 | C=CC(=O)N1CC2(CC(n3nc(N4CCc5nn(C)c(=O)cc5C4)c(-c4c(Cl)c(C)cc5[nH]ncc45)c3C)C2)C1 (single isomer, unassigned) [Example 40b, 6-(1-(2-acryloyl-2-azaspiro[3.3]heptan-6-yl)-4-(5-chloro-6-methyl-1H-indazol-4-yl)-5-methyl-1H-pyrazol-3-yl)-2-methyl-5,6,7,8-tetrahydropyrido[4,3-c]pyridazin-3(2H)-one] |
| 4.38 | C=CC(=O)N1CC2(CC(n3nc(N4CCn5nccc5C4C)c(-c4c(Cl)c(C)cc5[nH]ncc45)c3C)C2)C1 (single isomer, unassigned) [Example 41a, 1-(6-(4-(5-chloro-6-methyl-1H-indazol-4-yl)-5-methyl-3-(4-methyl-6,7-dihydropyrazolo[1,5-a]pyrazin-5(4H)-yl)-1H-pyrazol-1-yl)-2-azaspiro[3.3]heptan-2-yl)prop-2-en-1-one] |

Reference: patent US20240317721A1, “PYRAZOLYL DERIVATIVES AS INHIBITORS OF THE KRAS MUTANT PROTEIN” (NOVARTIS AG, priority 2021, published 2024)
